According to patent US20230085307A1, “PYRIDAZINONE COMPOUND AND HERBICIDE” (NISSAN CHEMICAL CORPORATION, priority 2019, published 2023):

Key:
southern crabgrass [1] = experiment: Test Example 5: herbicidal effect by foliage application, plastic box (Table 20, symbol F); type: in vivo, southern crabgrass (Digitaria ciliaris); details: 320 g/ha; for F: southern crabgrass, herbicidal effect grade: foliage application, three weeks after application; for herbicidal effect on F: southern crabgrass (evaluation grade 0-5): foliage application after 14-day growth, evaluated three weeks after application
How it was run: (§1)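 Foliar spray test: emulsion formulation diluted in water to a set application rate, sprayed onto 14-day-old plants raised in diluvial soil at 25° C to 30° C under glass. Both herbicidal effect and crop effect rated visually three weeks later.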

redroot pigweed [2] = experiment: Test Example 4: herbicidal effect by soil treatment (Table 19, symbol N); type: in vivo, redroot pigweed (Amaranthus retroflexus); details: amount of applied herbicide 320 g/ha
How it was run: (§2)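 Herbicidal effect was rated 3 weeks after treatment, using the scoring criteria of an earlier test. The compound, formulated as an emulsion and diluted in water to a set herbicide amount, had been sprayed uniformly on soil over freshly sown seeds. Growth took place in a greenhouse at 25° C. to 30° C.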

windgrass = experiment: Test Example 4: herbicidal effect by soil treatment (Table 19, symbol L); type: in vivo, windgrass (Apera spica-venti); details: amount of applied herbicide 320 g/ha
How it was run: as §2

Chinese sprangletop = experiment: Test Example 3: herbicidal effect by foliage application, Wagner pot (Table 18, symbol D); type: in vivo, chinese sprangletop (Leptochloa chinensis); details: 320 g/ha
How it was run: (§3)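 Plants were sown in alluvial soil held under 0.1–0.5 cm standing water and grown 14 days in a greenhouse at 25–30 °C. An emulsifiable formulation, water-diluted to the set dose, was then sprayed onto the foliage, and effects were scored three weeks later using previously defined criteria.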

late watergrass = experiment: Test Example 1: herbicidal activity, application before weed generation under submerged conditions (Table 16, symbol A); type: in vivo, late watergrass (Echinochloa oryzicola); details: amount of applied herbicide 320 g/ha
How it was run: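 Submerged Wagner pots (alluvial soil, 4 cm water) sown with weed seeds and planted with 2.5-leaf rice seedlings; emulsifiable concentrate diluted in water applied to water surface on sowing day. Held in greenhouse at 25-30 °C; injury scored 0-5 by herbicidal rate after three weeks.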

barnyard grass [3] = experiment: Test Example 4: herbicidal effect by soil treatment (Table 19, symbol H); type: in vivo, barnyard grass (Echinochloa crus-galli); details: amount of applied herbicide 320 g/ha
How it was run: as §2

blackgrass [4] = experiment: Test Example 4: herbicidal effect by soil treatment (Table 19, symbol J); type: in vivo, blackgrass (Alopecurus myosuroides); details: amount of applied herbicide 320 g/ha
How it was run: as §2

chickweed = experiment: Test Example 4: herbicidal effect by soil treatment (Table 19, symbol P); type: in vivo, common chickweed (Stellaria media); details: amount of applied herbicide 320 g/ha
How it was run: as §2

green foxtail [5] = experiment: Test Example 4: herbicidal effect by soil treatment (Table 19, symbol G); type: in vivo, green foxtail (Setaria viridis); details: amount of applied herbicide 320 g/ha
How it was run: as §2

green foxtail [6] = experiment: Test Example 5: herbicidal effect by foliage application, plastic box (Table 20, symbol G); type: in vivo, green foxtail (Setaria viridis); details: 320 g/ha; for G: green foxtail, herbicidal effect grade: foliage application, three weeks after application; for herbicidal effect on G: green foxtail (evaluation grade 0-5): foliage application after 14-day growth, evaluated three weeks after application
How it was run: as §1

blackgrass [7] = experiment: Test Example 5: herbicidal effect by foliage application, plastic box (Table 20, symbol J); type: in vivo, blackgrass (Alopecurus myosuroides); details: 320 g/ha; for J: blackgrass, herbicidal effect grade: foliage application, three weeks after application; for herbicidal effect on J: blackgrass (evaluation grade 0-5): foliage application after 14-day growth, evaluated three weeks after application
How it was run: as §1

oval-leafed pondweed = experiment: Test Example 2: herbicidal activity, application during weed generation under submerged conditions (Table 17, symbol C); type: in vivo, oval-leafed pondweed (Monochoria vaginalis); details: AAH 320 g/ha; application during weed generation, submerged conditions
How it was run: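 Steps: fill Wagner pots with alluvial soil; add water to give 4 cm depth; sow the species mixed; grow under glass at 25–30° C.; at 1–2 leaves apply water-diluted emulsion formulation to the water surface at a fixed herbicide amount; score after 3 weeks.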

persian speedwell = experiment: Test Example 5: herbicidal effect by foliage application, plastic box (Table 20, symbol R); type: in vivo, Persian speedwell (Veronica persica); details: 320 g/ha; for R: persian speedwell, herbicidal effect grade: foliage application, three weeks after application; for herbicidal effect on R: persian speedwell (evaluation grade 0-5): foliage application after 14-day growth, evaluated three weeks after application
How it was run: as §1

barnyard grass [8] = experiment: Test Example 3: herbicidal effect by foliage application, Wagner pot (Table 18, symbol H); type: in vivo, barnyard grass (Echinochloa crus-galli); details: 320 g/ha
How it was run: as §3

redroot pigweed [9] = experiment: Test Example 5: herbicidal effect by foliage application, plastic box (Table 20, symbol N); type: in vivo, redroot pigweed (Amaranthus retroflexus); details: 320 g/ha; for N: redroot pigweed, herbicidal effect grade: foliage application, three weeks after application; for herbicidal effect on N: redroot pigweed (evaluation grade 0-5): foliage application after 14-day growth, evaluated three weeks after application
How it was run: as §1

southern crabgrass [10] = experiment: Test Example 4: herbicidal effect by soil treatment (Table 19, symbol F); type: in vivo, southern crabgrass (Digitaria ciliaris); details: amount of applied herbicide 320 g/ha
How it was run: as §2

Row | SMILES | F: southern crabgrass, herbicidal effect grade (southern crabgrass [1]) | herbicidal effect on Chinese sprangletop (D) (Chinese sprangletop) | Herbicidal effect, A: late watergrass (late watergrass) | G: green foxtail, herbicidal effect grade (green foxtail [6]) | J: blackgrass, herbicidal effect grade (blackgrass [7]) | herbicidal effect rating, C: oval-leafed pondweed (oval-leafed pondweed) | R: persian speedwell, herbicidal effect grade (persian speedwell) | herbicidal effect on barnyard grass (H) (barnyard grass [8]) | Herbicidal effect by soil treatment, N: redroot pigweed (redroot pigweed [2]) | Herbicidal effect by soil treatment, L: windgrass (windgrass) | Herbicidal effect by soil treatment, H: barnyard grass (barnyard grass [3]) | Herbicidal effect by soil treatment, J: blackgrass (blackgrass [4]) | Herbicidal effect by soil treatment, P: chickweed (chickweed) | Herbicidal effect by soil treatment, G: green foxtail (green foxtail [5]) | Herbicidal effect by soil treatment, F: southern crabgrass (southern crabgrass [10]) | herbicidal effect on F: southern crabgrass (evaluation grade 0-5) (southern crabgrass [1]) | herbicidal effect on G: green foxtail (evaluation grade 0-5) (green foxtail [6]) | herbicidal effect on J: blackgrass (evaluation grade 0-5) (blackgrass [7]) | herbicidal effect on R: persian speedwell (evaluation grade 0-5) (persian speedwell) | herbicidal effect on N: redroot pigweed (evaluation grade 0-5) (redroot pigweed [9]) | further results
1 | COc1ccccc1-c1sc2cc(OCC3CC3(F)F)ccc2c1-c1c(O)c(C)nn(C)c1=O (centres unmarked) [3-131] | 5 (Herbicidal rate of 90% or more (almost completely withered)) | 3 (Herbicidal rate of 40% or more and less than 70%) | 5 (Herbicidal rate of 90% or more (almost completely withered)) | 5 (Herbicidal rate of 90% or more (almost completely withered)) | 5 (Herbicidal rate of 90% or more (almost completely withered)) | 5 (Herbicidal rate of 90% or more (almost completely withered)) | 5 (Herbicidal rate of 90% or more (almost completely withered)) | 5 (Herbicidal rate of 90% or more (almost completely withered)) | – | – | – | – | – | – | – | – | – | – | – | – | N: redroot pigweed, herbicidal effect grade (redroot pigweed [2]): 5 (Herbicidal rate of 90% or more (almost completely withered)); L: windgrass, herbicidal effect grade (windgrass): 3 (Herbicidal rate of 40% or more and less than 70%); H: barnyard grass, herbicidal effect grade (barnyard grass [3]): 2 (Herbicidal rate of 20% or more and less than 40%); J: blackgrass, herbicidal effect grade (blackgrass [4]): 4 (Herbicidal rate of 70% or more and less than 90%); P: chickweed, herbicidal effect grade (chickweed): 4 (Herbicidal rate of 70% or more and less than 90%); G: green foxtail, herbicidal effect grade (green foxtail [5]): 4 (Herbicidal rate of 70% or more and less than 90%); N: redroot pigweed, herbicidal effect grade (redroot pigweed [9]): 5 (Herbicidal rate of 90% or more (almost completely withered)); F: southern crabgrass, herbicidal effect grade (southern crabgrass [10]): 3 (Herbicidal rate of 40% or more and less than 70%)
2 | CCCC(=O)Oc1c(C)nn(C)c(=O)c1-c1c(-c2ccc(C(F)(F)F)cc2)sc2cc(F)ccc12 [3-140] | 1 (Herbicidal rate of 5% or more and less than 20%) | 4 (Herbicidal rate of 70% or more and less than 90%) | 5 (Herbicidal rate of 90% or more (almost completely withered)) | 2 (Herbicidal rate of 20% or more and less than 40%) | 0 (Herbicidal rate of 5% or less (almost no effect)) | 3 (Herbicidal rate of 40% or more and less than 70%) | 5 (Herbicidal rate of 90% or more (almost completely withered)) | 5 (Herbicidal rate of 90% or more (almost completely withered)) | 4 (Herbicidal rate of 70% or more and less than 90%) | 0 (Herbicidal rate of 5% or less (almost no effect)) | 0 (Herbicidal rate of 5% or less (almost no effect)) | 0 (Herbicidal rate of 5% or less (almost no effect)) | 0 (Herbicidal rate of 5% or less (almost no effect)) | 0 (Herbicidal rate of 5% or less (almost no effect)) | 0 (Herbicidal rate of 5% or less (almost no effect)) | – | – | – | – | – | N: redroot pigweed, herbicidal effect grade (redroot pigweed [9]): 5 (Herbicidal rate of 90% or more (almost completely withered))
3 | CCCC(=O)Oc1c(C)nn(C)c(=O)c1-c1c(-c2ccc(OC(F)(F)F)cc2)sc2cc(F)ccc12 [3-144] | – | 4 (Herbicidal rate of 70% or more and less than 90%) | 5 (Herbicidal rate of 90% or more (almost completely withered)) | – | – | 2 (Herbicidal rate of 20% or more and less than 40%) | – | 5 (Herbicidal rate of 90% or more (almost completely withered)) | 4 (Herbicidal rate of 70% or more and less than 90%) | 0 (Herbicidal rate of 5% or less (almost no effect)) | 3 (Herbicidal rate of 40% or more and less than 70%) | 0 (Herbicidal rate of 5% or less (almost no effect)) | 0 (Herbicidal rate of 5% or less (almost no effect)) | 0 (Herbicidal rate of 5% or less (almost no effect)) | 1 (Herbicidal rate of 5% or more and less than 20%) | 1 (Herbicidal rate of 5% or more and less than 20%) | 5 (Herbicidal rate of 90% or more (almost completely withered)) | 0 (Herbicidal rate of 5% or less (almost no effect)) | 5 (Herbicidal rate of 90% or more (almost completely withered)) | 5 (Herbicidal rate of 90% or more (almost completely withered)) | –
4 | COc1ccc2c(-c3c(OC(=O)C4CCCCC4)c(C)nn(C)c3=O)c(-c3ccccc3OC)sc2c1 [3-156] | – | 4 (Herbicidal rate of 70% or more and less than 90%) | 5 (Herbicidal rate of 90% or more (almost completely withered)) | – | – | 5 (Herbicidal rate of 90% or more (almost completely withered)) | – | 5 (Herbicidal rate of 90% or more (almost completely withered)) | 0 (Herbicidal rate of 5% or less (almost no effect)) | 0 (Herbicidal rate of 5% or less (almost no effect)) | 0 (Herbicidal rate of 5% or less (almost no effect)) | 0 (Herbicidal rate of 5% or less (almost no effect)) | 3 (Herbicidal rate of 40% or more and less than 70%) | 0 (Herbicidal rate of 5% or less (almost no effect)) | 0 (Herbicidal rate of 5% or less (almost no effect)) | 5 (Herbicidal rate of 90% or more (almost completely withered)) | 5 (Herbicidal rate of 90% or more (almost completely withered)) | 4 (Herbicidal rate of 70% or more and less than 90%) | 5 (Herbicidal rate of 90% or more (almost completely withered)) | 5 (Herbicidal rate of 90% or more (almost completely withered)) | –
5 | COc1ccccc1-c1sc2cc(SC)ccc2c1-c1c(O)c(C)nn(C)c1=O [3-163] | – | 5 (Herbicidal rate of 90% or more (almost completely withered)) | 3 (Herbicidal rate of 40% or more and less than 70%) | – | – | 0 (Herbicidal rate of 5% or less (almost no effect)) | – | 5 (Herbicidal rate of 90% or more (almost completely withered)) | 5 (Herbicidal rate of 90% or more (almost completely withered)) | 3 (Herbicidal rate of 40% or more and less than 70%) | 5 (Herbicidal rate of 90% or more (almost completely withered)) | 3 (Herbicidal rate of 40% or more and less than 70%) | 4 (Herbicidal rate of 70% or more and less than 90%) | 3 (Herbicidal rate of 40% or more and less than 70%) | 4 (Herbicidal rate of 70% or more and less than 90%) | 5 (Herbicidal rate of 90% or more (almost completely withered)) | 5 (Herbicidal rate of 90% or more (almost completely withered)) | 5 (Herbicidal rate of 90% or more (almost completely withered)) | 5 (Herbicidal rate of 90% or more (almost completely withered)) | 5 (Herbicidal rate of 90% or more (almost completely withered)) | –
